According to US5032576A, “Method for controlling female moths using a peptide” (The United States of America as represented by the …, priority 1989, dated 1991):
Where two headings read alike, the source gives them in different places. Where a SMILES comes first, the peptide text is derived from it.

How the values were obtained:
ligated H. zea females = assay: Pheromone production bioassay: injection into ligated H. zea females; format: in vivo, Heliothis zea; details: for ng/Female H. zea (Z)-11-Hexadecenal: injected into ligated females
[1] = tested on: D. nitidalis (pickle worm); details: (E)-11-hexadecenal per female ± SE, N = 5; 5 pmoles injected
Procedure: (§1) Bioassay procedure is described in Example 6. Each female was injected
(§2) of the synthetic peptide in 10 microliter of buffer. The major component
(§3) Dose response of the peptide of Formula I, wherein X is Asp and Y is Leu(NH2): the peptide was dissolved in sucrose phosphate buffer and injected into ligated 3-day-old females during scotophase. Pheromone was extracted 3 hr after injection and quantified by capillary gas chromatography.

[2] = tested on: H. virescens (tobacco budworm); details: (Z)-11-hexadecenal per female ± SE, N = 5; 5 pmoles injected
Procedure: as §1, §2, §3

[3] = tested on: O. nubilalis (European corn borer); details: (E)-11-tetradecen-1-ol acetate per female ± SE, N = 5; 5 pmoles injected
Procedure: as §1, §2, §3

[4] = tested on: S. frugiperda (fall armyworm); details: per female ± SE, N = 5; 5 pmoles injected
Procedure: as §1, §2, §3

[5] = tested on: M. sexta (tobacco hornworm); details: (E,Z)-10,12-hexadecadienal per female ± SE, N = 5; 5 pmoles injected
Procedure: as §1, §2, §3

L. dispar (gypsy moth) = details: cis-2-decyl-3-(5-methylhexyl) oxirane per female ± SE, N = 5; 5 pmoles injected
Procedure: as §1, §2, §3

[6] = tested on: ligated females of six other species of moths
Procedure: as §1, §2

[7] = tested on: third instar H. zea larvae
Procedure: Peptide of the Formula I, wherein X is Asp and Y is Leu(NH2) was dissolved in sucrose phosphate buffer and serially diluted to obtain 0.1, 1.0, 10, 100, and 1000 pmoles/5 μL of buffer. The peptide was then injected into third instar H. zea larvae the day before their moult to fourth instar. Observations for melanization (intense black color formation) were recorded after 48 hr.

SMILES | ng/Female H. zea (Z)-11-Hexadecenal (ligated H. zea females; Dose 1.0 pMole) | ng/Female H. zea (Z)-11-Hexadecenal (ligated H. zea females; Dose 10.0 pMole) | ng/Female H. zea (Z)-11-Hexadecenal (ligated H. zea females; Dose 100.0 pMole) | ng/Female H. zea (Z)-11-Hexadecenal (ligated H. zea females; Dose 1000.0 pMole) | Quantity of the Major Component in the Pheromone of Hex-PBAN injected Female [1] | Quantity of the Major Component in the Pheromone of Hex-PBAN injected Female [2] | Quantity of the Major Component in the Pheromone of Hex-PBAN injected Female [3] | Quantity of the Major Component in the Pheromone of Hex-PBAN injected Female [4] | Quantity of the Major Component in the Pheromone of Hex-PBAN injected Female [5] | Quantity of the Major Component in the Pheromone of Hex-PBAN injected Female (L. dispar (gypsy moth)) | quantity of pheromone produced relative to that found in normal females ([6]; in two of the six species) | production of their respective pheromones ([6]; injected into ligated females of six other species) | melanization ([7]; 10 pmole dose, recorded after 48 hr) | melanization ([7]; 10 pmoles/larva, after the moult to the fourth instar) | mortality ([7]; 10 pmoles/larva, associated with melanization) | pheromone production at doses greater than 4.0 pmoles (ligated H. zea females; doses greater than 4.0 pmoles) | production of the sex pheromone (ligated H. zea females; injected into ligated H. zea females)
CC[C@H](C)[C@H](NC(=O)[C@H](CCC(N)=O)NC(=O)[C@H](CCC(=O)O)NC(=O)[C@@H]1CCCN1C(=O)[C@H](CC(=O)O)NC(=O)[C@H](CCC(N)=O)NC(=O)[C@H](CCCNC(=N)N)NC(=O)[C@H](Cc1ccc(O)cc1)NC(=O)[C@H](CCSC)NC(=O)[C@H](CCC(=O)O)NC(=O)[C@H](CCC(N)=O)NC(=O)[C@H](CC(=O)O)NC(=O)[C@H](C)NC(=O)[C@@H]1CCCN1C(=O)[C@@H](NC(=O)[C@H](C)NC(=O)[C@@H]1CCCN1C(=O)[C@H](CCSC)NC(=O)[C@H](CC(=O)O)NC(=O)[C@H](CC(=O)O)NC(=O)[C@H](CO)NC(=O)[C@@H](N)CC(C)C)[C@@H](C)O)C(=O)N[C@@H](CC(N)=O)C(=O)N[C@@H](CO)C(=O)N[C@@H](CCCNC(=N)N)C(=O)N[C@H](C(=O)N[C@@H](CCCCN)C(=O)N[C@@H](Cc1ccc(O)cc1)C(=O)N[C@@H](Cc1ccccc1)C(=O)N[C@@H](CO)C(=O)N1CCC[C@H]1C(=O)N[C@@H](CCCNC(=N)N)C(=O)N[C@@H](CC(C)C)C(N)=O)[C@@H](C)O [Compound 3] (H-LSDDMPATPADQEMYRQDPEQINSRTKYFSPRL-NH2) | 1.7 ng/Female | 97.1 ng/Female | 145.7 ng/Female |  |  |  |  |  |  |  |  |  |  |  |  |  | 
CC[C@H](C)[C@H](NC(=O)[C@H](CCC(N)=O)NC(=O)[C@H](CCC(=O)O)NC(=O)[C@@H]1CCCN1C(=O)[C@H](CC(=O)O)NC(=O)[C@H](CCC(N)=O)NC(=O)[C@H](CCCNC(=N)N)NC(=O)[C@H](Cc1ccc(O)cc1)NC(=O)[C@H](CCSC)NC(=O)[C@H](CCC(=O)O)NC(=O)[C@H](CCC(N)=O)NC(=O)[C@H](CC(=O)O)NC(=O)[C@H](C)NC(=O)[C@@H]1CCCN1C(=O)[C@@H](NC(=O)[C@H](C)NC(=O)[C@@H]1CCCN1C(=O)[C@H](CCSC)NC(=O)[C@H](CC(=O)O)NC(=O)[C@H](CC(=O)O)NC(=O)[C@H](CO)NC(=O)[C@@H](N)CC(C)C)[C@@H](C)O)C(=O)N[C@@H](CC(N)=O)C(=O)N[C@@H](CO)C(=O)N[C@@H](CCCNC(=N)N)C(=O)N[C@H](C(=O)N[C@@H](CCCCN)C(=O)N[C@@H](Cc1ccc(O)cc1)C(=O)N[C@@H](Cc1ccccc1)C(=O)N[C@@H](CO)C(=O)N1CCC[C@H]1C(=O)N[C@@H](CCCNC(=N)N)C(=O)N[C@@H](CC(C)C)C(=O)O)[C@@H](C)O [Compound 4] (H-LSDDMPATPADQEMYRQDPEQINSRTKYFSPRL-OH) |  | 0.9 ng/Female | 3.2 ng/Female | 112.1 ng/Female |  |  |  |  |  |  |  |  |  |  |  |  | 
CC[C@H](C)[C@H](NC(=O)[C@H](CCC(N)=O)NC(=O)[C@H](CCC(=O)O)NC(=O)[C@@H]1CCCN1C(=O)[C@H](CC(=O)O)NC(=O)[C@H](CCC(N)=O)NC(=O)[C@H](CCCNC(=N)N)NC(=O)[C@H](Cc1ccc(O)cc1)NC(=O)[C@H](CCSC)NC(=O)[C@H](CCC(=O)O)NC(=O)[C@H](CCC(N)=O)NC(=O)[C@H](CC(=O)O)NC(=O)[C@H](C)NC(=O)[C@@H]1CCCN1C(=O)[C@@H](NC(=O)[C@H](C)NC(=O)[C@@H]1CCCN1C(=O)[C@H](CCSC)NC(=O)[C@H](CC(=O)O)NC(=O)[C@H](CC(=O)O)NC(=O)[C@H](CO)NC(=O)[C@@H](N)CC(C)C)[C@@H](C)O)C(=O)N[C@@H](CC(=O)O)C(=O)N[C@@H](CO)C(=O)N[C@@H](CCCNC(=N)N)C(=O)N[C@H](C(=O)N[C@@H](CCCCN)C(=O)N[C@@H](Cc1ccc(O)cc1)C(=O)N[C@@H](Cc1ccccc1)C(=O)N[C@@H](CO)C(=O)N1CCC[C@H]1C(=O)N[C@@H](CCCNC(=N)N)C(=O)N[C@@H](CC(C)C)C(N)=O)[C@@H](C)O [Compound 1] (H-LSDDMPATPADQEMYRQDPEQIDSRTKYFSPRL-NH2) | 4.6 ng/Female | 128.2 ng/Female | 179.9 ng/Female |  | 49.2 ± 16.3 ng | 189.2 ± 12.2 ng | 6.7 ± 1.1 ng | 42.9 ± 12.2 ng | 65.4 ± 11.9 ng | 2.5 ± 0.4 ng | 6-7 times | significant amounts | 100% | intense melanization | significant mortality | significant decrease | normal production
